Laboratory results: PubChem BioAssay (NCI)
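Following 48 hours of exposure in 96-well plates, responses at five concentrations were used to interpolate endpoints linearly. GI50 = concentration required for 50% inhibition of growth. TGI marks complete inhibition of growth.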

Assays:
Experiment in all cases: NCI anticancer screen, dose series, 48 h
T-47D breast = tested on: T-47D breast
MALME-3M melanoma = tested on: MALME-3M melanoma
NCI-H522 lung = tested on: NCI-H522 lung
PC-3 prostate = tested on: PC-3 prostate
CCRF-CEM leukemia = tested on: CCRF-CEM leukemia
MCF7 breast = tested on: MCF7 breast
SF-539 CNS = tested on: SF-539 CNS
U251 CNS = tested on: U251 CNS
NCI/ADR-RES ovarian = tested on: NCI/ADR-RES ovarian
A549 NSCLC = tested on: A549 NSCLC

Compound	TGI (T-47D breast)	TGI (MALME-3M melanoma)	TGI (NCI-H522 lung)	TGI (PC-3 prostate)	TGI (CCRF-CEM leukemia)	TGI (MCF7 breast)	TGI (SF-539 CNS)	TGI (U251 CNS)	TGI (NCI/ADR-RES ovarian)	TGI (A549 NSCLC)	GI50 (T-47D breast)	GI50 (MALME-3M melanoma)	GI50 (NCI-H522 lung)	GI50 (PC-3 prostate)	GI50 (CCRF-CEM leukemia)	GI50 (MCF7 breast)	GI50 (SF-539 CNS)	GI50 (U251 CNS)	GI50 (NCI/ADR-RES ovarian)	GI50 (A549 NSCLC)
CC(C)(C)c1cc(OCc2nn3c(Cc4ccccc4)nnc3s2)c(Cl)cc1OCc1nn2c(Cc3ccccc3)nnc2s1	> 100 µM	36.6 µM	> 100 µM	> 100 µM	> 100 µM	> 100 µM	> 100 µM	> 100 µM	> 100 µM	> 100 µM										
CC(=O)Oc1c2c(c3n(c1=O)CCCC3)C(=O)N(c1ccccc1)C2=O	> 100 µM	> 100 µM	> 100 µM	> 100 µM	> 100 µM	> 100 µM	> 100 µM	> 100 µM	> 100 µM	> 100 µM										
COc1ccc(C2C(C#N)=C(S)N(C3OC(COC(C)=O)C(OC(C)=O)C(OC(C)=O)C3OC(C)=O)C(c3ccccc3)=C2C(C)=O)cc1 (stereo not given)	80.1 µM	> 100 µM	> 100 µM	> 100 µM	> 100 µM	> 100 µM	> 100 µM	> 100 µM	> 100 µM	> 100 µM										
C=CCN(CCNS(=O)(=O)c1ccc(C)cc1)S(=O)(=O)c1ccc(C)cc1	> 100 µM	> 100 µM	> 100 µM	> 100 µM	> 100 µM	> 84.2 µM	> 100 µM	> 100 µM	> 100 µM	> 100 µM										
COc1cc2c3c(n(C)c(=O)c2cc1OC)-c1cc2c(cc1/C3=C\CCCI)OCO2	> 95.4 µM	> 100 µM	> 100 µM	> 100 µM	> 100 µM	> 100 µM	> 95.3 µM	> 100 µM	> 100 µM	> 100 µM										
O=c1ccn(C2OC(CO)C(O)C2F)c(=O)n1Cc1ccccc1 (stereo not given)	> 100 µM	> 100 µM	> 100 µM	> 100 µM	> 100 µM	> 100 µM	> 100 µM	> 100 µM	> 100 µM	> 100 µM										
Cc1cc(S(=O)(=O)Nc2nnc3cnc4ccccc4n23)c(S)cc1Cl	> 100 µM	> 100 µM	> 100 µM	> 100 µM	> 100 µM	> 100 µM	> 100 µM	> 100 µM	> 100 µM	> 100 µM										
Cc1cc(=O)n2nc(CCl)sc2n1	32.3 µM	26.4 µM	20 µM	29.8 µM	40.8 µM	28.7 µM	34.1 µM	20.3 µM	48 µM	35 µM										
Clc1cccc(NN=Nc2ccc(-c3nc4ccccc4s3)cc2)c1	> 100 µM	88.2 µM	66.2 µM	> 100 µM	37.7 µM	> 100 µM	> 100 µM	> 100 µM	74.1 µM	> 100 µM										
CCOC(=O)C(NC(=O)c1ccccc1)(N1CCN(c2cc3c(cc2F)c(=O)c(C(=O)O)cn3CC)CC1)C(F)(F)F (stereo not given)	88.6 µM	90.1 µM	32.4 µM	> 100 µM	86.2 µM	69.2 µM	82.9 µM	> 100 µM	> 100 µM	> 100 µM										
C=C(C)COC1CCCCO1 (stereo not given)	> 100 µM	> 100 µM	> 100 µM	> 100 µM	> 100 µM	> 100 µM	> 100 µM	> 100 µM	> 100 µM	> 100 µM										
CCCCCCCCCCCCCCC(O)C[N+](C)(CCO)CCO (stereo not given)	30.6 µM	7.54 µM	5.03 µM	4.31 µM	9.82 µM	36.5 µM	7.21 µM	2.89 µM	49 µM	34.3 µM										
O=c1[nH]cc(Cl)c(=O)[nH]1	> 100 µM	> 100 µM	> 100 µM	> 100 µM	> 100 µM	> 100 µM	> 100 µM	> 100 µM	> 100 µM	> 100 µM										
Cc1nc(C)c(N2CCNCC2)c(=O)[nH]1	> 100 µM	> 100 µM	> 100 µM	> 100 µM	> 100 µM	> 100 µM	> 100 µM	> 100 µM	> 100 µM	> 100 µM										
COc1ccc2c3c([nH]c2c1)CCN(CCCC(=O)c1ccc(F)cc1)C3	37 µM	27 µM	42.8 µM	25.6 µM	54.9 µM	31.6 µM	22.3 µM	32 µM	33.9 µM	32.1 µM										
COC(=O)N[C@H](C(=O)O)C(C)O[Si](C)(C)C(C)(C)C (stereo not given in full)	> 100 µM	> 100 µM	> 100 µM	> 100 µM	> 100 µM	> 100 µM	> 100 µM	> 100 µM	> 100 µM	> 100 µM										
CCOC(=O)C(Cc1ccc(OC(=O)OC(C)(C)C)cc1)NC(=O)OC(C)(C)C (stereo not given)	70.7 µM	> 100 µM	> 100 µM	> 100 µM	> 100 µM	> 100 µM	> 100 µM	> 100 µM	> 100 µM	> 100 µM										
C=C1CC(Cn2ccc(=O)[nH]c2=O)(c2ccc(Cl)cc2)OC1=O (stereo not given)	12.1 µM	7.13 µM	2.26 µM	19.2 µM	3.46 µM	7.56 µM	30.4 µM	31.7 µM	19 µM	32.2 µM										
CC(C)=CCC/C(C)=C/COc1c2ccoc2cc2oc(=O)ccc12	> 100 µM	99.6 µM	74.8 µM	> 100 µM	50.2 µM	61.4 µM	> 100 µM	55.5 µM	> 100 µM	> 100 µM										
COc1cc(OC)cc(-c2n/c(=C\c3c(O)[nH]c4ccc(OC)cc34)cc3c2=Nc2ccccc2-3)c1	75.8 µM	5.42 µM	37.2 µM	62.2 µM	12.2 µM	3.41 µM	25.4 µM	3.84 µM	18.7 µM	26.1 µM	24.6 µM	2.27 µM	17.8 µM	20.5 µM	2.78 µM	1.4 µM	10.4 µM	1.93 µM	3.66 µM	11.6 µM
O=C(Nc1cccc([N+](=O)[O-])c1)c1n[nH]n(-c2cccc([N+](=O)[O-])c2)c1=O	> 100 µM	> 100 µM	> 100 µM	> 100 µM	> 100 µM	> 100 µM	> 100 µM	> 100 µM	> 100 µM	> 100 µM										
COc1cc2c(c(O)c1OC)CC1CCC(=O)N1C2c1cccc2ccccc12 (stereo not given)	48.4 µM	44.5 µM	41 µM	43.7 µM	> 100 µM	> 100 µM	30.6 µM	42.9 µM	53.7 µM	> 100 µM										
O=C1CC[C@@]2(O)[C@H]3Cc4ccc(-c5ccccc5)c5c4[C@@]2(CCN3CC2CC2)[C@H]1O5	35.7 µM	29.9 µM	30.1 µM	46.7 µM	49.7 µM	33.5 µM	33.5 µM	32.1 µM	33.7 µM	43.6 µM										
COC(=O)c1c(O)ccc2[nH]c3c(O)c4ccccc4cc3c12	36.6 µM	51.9 µM	53.6 µM	> 100 µM	63.1 µM	56.2 µM	60.3 µM	> 100 µM	78.4 µM	> 100 µM										
COC1=CC(=O)CC(C)C12Oc1c(Cl)c(OC)cc(OC)c1C2=O (stereo not given)	> 100 µM	> 100 µM	23.1 µM	> 70.3 µM	98.3 µM	> 100 µM	42.1 µM	> 100 µM	> 76.4 µM	> 100 µM										
O=C(/C=C(\S/C=C(/c1ccccc1)N1CCn2c(C(=O)c3ccccc3)c(C(=O)c3ccccc3)c(C(=O)c3ccccc3)c21)C(=O)c1ccccc1)c1ccccc1	> 10 µM	> 10 µM	> 10 µM	> 10 µM	> 10 µM	> 10 µM	> 10 µM	> 10 µM	> 10 µM	> 10 µM										
CCCCCCCCCCCC[C@@H](O)[C@H]1CCC([C@H](O)CCCCC(=O)CCCCCCCC2=C[C@H](C)OC2=O)O1 (stereo not given in full)	> 50 µM	> 50 µM	> 50 µM	> 50 µM	> 50 µM	> 50 µM	> 50 µM	> 50 µM	> 50 µM	> 50 µM										
CN(C)c1ccc(/C=C(\NC(=O)c2ccccc2)C2=NC(CCC(=O)O)C(=O)O2)cc1 (stereo not given)	> 50 µM	> 50 µM	49.1 µM	> 50 µM	> 50 µM	> 50 µM	> 50 µM	> 50 µM	> 50 µM	> 50 µM										
NCC(O)CNC(=O)c1ccc(-c2ccc(-c3ccc(C(=O)NCC(O)CN)cc3)o2)cc1 (stereo not given)	92.6 µM	44.2 µM	> 100 µM	48.3 µM	> 100 µM	> 100 µM	41.6 µM	42.6 µM	> 100 µM	> 100 µM										
Cc1ccc(C(=O)Nc2ccc(CP(=O)(O)O)cc2CP(=O)(O)O)cc1NC(=O)Nc1cc(C(=O)Nc2ccc(CP(=O)(O)O)cc2CP(=O)(O)O)ccc1C	> 100 µM	> 100 µM	> 100 µM	> 100 µM	> 100 µM	> 100 µM	> 100 µM	> 100 µM	> 100 µM	> 100 µM										
